For 4 compounds, IC50, melting point and remaining activity results are on record in publication PMC8634879, “Design, Synthesis, and Biological Evaluation of Pyrano[2,3-c]-pyrazole–Based RalA Inhibitors Against Hepatocellular Carcinoma” (Frontiers in Chemistry, 2021).

Where two headings read alike, the source gives them in different places.

For one series, the system named is Huh-7 cells. The series can be described thus: Cell proliferation assay (MTT), Huh-7. In kind it is cell-based. As to conditions: Homo sapiens. How it is done:
(§1) The antibodies recognizing LC3, p62/SQSTM1, RalA, RalB, and GAPDH were purchased from Proteintech (Wuhan, China). HCC cell lines, including HepG2, Hep3B, Huh-7, and SMMC-7721, were obtained from the Chinese Center for Type Culture Collection (Wuhan, China) and cultured in DMEM (Dulbecco’s modified Eagle’s medium) with 10% FBS (fetal bovine serum) and streptomycin. Cytotoxicity assays were performed by using the MTT method as previously described.
(§2) The in vitro RalA/B bioactivity assays were performed following methods outlined in previous reports. ([Yan et al., 2016]; [Zhang et al., 2018]; [Walsh et al., 2019]; [Bum-Erdene et al., 2020]). In brief, the lysates of the test compound or vehicle-treated cells were cleared using cold centrifugation, and supernatants were collected. An RalBP1 solution was added to 96-well plates and incubated for 1–2 h, and then the plates were washed thrice using ELISA buffer. Next, cellular lysates were added, and samples were incubated overnight at 4°C. Then, ice-cold mouse anti-FLAG antibody was added, and samples were incubated for one more hour. After subsequent washing with ELISA buffer thrice, the HRP-conjugated anti-mouse antibody was added, and samples were incubated for another hour. Then, the HRP substrate was added. Antigen–antibody reactions were quenched by the addition of sulfuric acid (2 mol/L). Remaining RalA/B was detected by the OD450 values which were collected by using a plate reader. Cell proliferation assays, colony formation assays, apoptosis assays, GST pulldown, and Western blotting were used following methods outlined in our previous reports. ([Zhou et al., 2015]; [Zhang et al., 2016]; [Yang et al., 2017]; [He et al., 2019]). Autophagy levels and protein immunoblotting were used following the methods mentioned in our previous reports ([Pan et al., 2018]; [Wang et al., 2018]; [Hao et al., 2019]; [Wang et al., 2019]; [Peng et al., 2020]). Detailed experimental procedures are described in supporting materials.

A further series concerns HepG2 cells. The series can be described thus: Cell proliferation assay (MTT), HepG2. In kind it is cell-based. The following applies: Homo sapiens. As to the method:
as §1, §2

Another series addresses T1, RalA (Homo sapiens, UniProt P11233).
T1 construct: expressed in transfected cells; host or cells: HepG2 (from b6; the methods paragraph names no cell line)
T1 sequence (P11233 1-203 limits assumed): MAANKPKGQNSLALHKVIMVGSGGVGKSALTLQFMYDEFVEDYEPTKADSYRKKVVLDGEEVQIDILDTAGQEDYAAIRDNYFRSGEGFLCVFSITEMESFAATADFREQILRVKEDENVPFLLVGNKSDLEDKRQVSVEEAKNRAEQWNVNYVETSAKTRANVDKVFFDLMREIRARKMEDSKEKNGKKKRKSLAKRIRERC
The series can be described thus: ELISA-based RalA activity assay (RalBP1-coated plates, lysates of compound-treated cells). The class given is biochemical. As to conditions: for remaining activity at 1 µM: 1 μM compound, % control = activity remained; for IC50: enzymatic inhibition, average of at least three independent replicates ± SD, read-out: Kinase activities (IC50, μM) RalA. As to the method:
as §2
(In an ELISA, binding on a coated surface is turned into a signal by an enzyme label.)

The next series concerns the target T2, RalB (Homo sapiens, UniProt P11234).
T2 construct: expressed in transfected cells; host or cells: HepG2 (from b6; the methods paragraph names no cell line)
T2 sequence (P11234 1-203 limits assumed): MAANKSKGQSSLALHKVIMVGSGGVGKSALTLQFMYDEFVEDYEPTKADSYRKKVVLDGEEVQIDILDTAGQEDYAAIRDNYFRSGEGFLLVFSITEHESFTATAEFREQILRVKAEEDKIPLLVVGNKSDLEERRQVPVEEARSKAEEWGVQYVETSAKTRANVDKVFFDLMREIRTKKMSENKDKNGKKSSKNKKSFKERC
The series can be described thus: ELISA-based RalB activity assay (RalBP1-coated plates, lysates of compound-treated cells). As to conditions: for remaining activity at 1 µM: 1 μM compound, % control = active (RalBP1-bound) RalB remaining; for IC50: enzymatic inhibition, average of at least three independent replicates ± SD, read-out: Kinase activities (IC50, μM) RalB. In kind it is biochemical. How it is done:
as §2

The subject of another series is Hep3B cells. The series can be described thus: Cell proliferation assay (MTT), Hep3B. The class given is cell-based. As to conditions: Homo sapiens, average of at least three independent replicates ± SD, read-out: Anti-proliferative activities (IC50, μM) Hep3B. How it is done: as §1, §2
A further series relates to SMMC-7721 cells. The series can be described thus: Cell proliferation assay (MTT), SMMC-7721. The class given is cell-based. The following applies: Homo sapiens, average of at least three independent replicates ± SD, read-out: Anti-proliferative activities (IC50, μM) SMMC-7721. As to the method: as §1, §2
Setting [1] is: Table 1, cell proliferation inhibition, read-out: IC50 (μM) Huh7.
The mark [2] stands for this setting: Table 2, average of at least three independent replicates ± SD, read-out: Anti-proliferative activities (IC50, μM) Huh-7.
The mark [3] stands for this setting: HepG2, Table 1, cell proliferation inhibition, read-out: IC50 (μM) HepG2.
The mark [4] stands for this setting: HepG2, Table 2, average of at least three independent replicates ± SD, read-out: Anti-proliferative activities (IC50, μM) HepG2.

As for `Cc1ccc(S(=O)(=O)NC2=C(C#N)C(c3ccsc3)c3c(C)nn(-c4ccccc4)c3O2)cc1` (centres unmarked) [4m, N-(5-cyano-3-methyl-1-phenyl-4-(thiophen-3-yl)-1,4-dihydropyrano[2,3-c]-pyrazol-6-yl)-4-methylbenzenesulfonamide], the melting point (commonly the temperature, or range, at which the solid turns liquid) lay in the range of 67.8 to 68.4 °C. In the series with Huh-7 cells (setting [1]), the 50% inhibitory concentration (IC50) – broadly, the midpoint of a concentration-inhibition curve – was > 10 µM. For the same compound, the IC50 in the series with Huh-7 cells (setting [2]) was > 10 µM. The half-maximal inhibitory concentration (IC50) in the series on HepG2 cells (setting [3]) was 7.2 ± 0.65 µM. Also, in the series with HepG2 cells (setting [4]), the IC50 was determined as 9.15 µM. At RalA, the remaining activity (in general, what remains of the control signal, in per cent) at 1 µM stood at 45% and the IC50 was found to be 1.7 ± 0.22 µM. At RalB, the remaining activity at 1 µM was found to be 58% and the IC50 turned out to be 3.86 ± 0.39 µM. Moreover, the IC50 with Hep3B cells turned out to be 9.84 ± 1.37 µM. Also, in the series with SMMC-7721 cells, the IC50 is 9.6 ± 1.05 µM.
`Cc1nn(-c2ccccc2)c2c1C(c1ccc(C(F)(F)F)cc1)C(C#N)=C(NS(=O)(=O)c1ccc(F)cc1F)O2` (centres unmarked) [4r, N-(5-cyano-3-methyl-1-phenyl-4-(4-(trifluoromethyl)phenyl)-1,4-dihydropyrano[2,3-c]-pyrazol-6-yl)-2,4-difluorobenzenesulfonamide]: the melting point lay in the range of 65.8 to 66.5 °C. Besides, the IC50 in the series on Huh-7 cells (setting [1]) was determined as 7.39 ± 0.85 µM. The IC50 in the series with Huh-7 cells (setting [2]) came to 7.39 ± 0.85 µM. Further, the IC50 in the series with HepG2 cells (setting [3]) was found to be 7.56 ± 0.92 µM. The concentration for half-maximal inhibition (IC50) in the series on HepG2 cells (setting [4]) was 7.56 ± 0.92 µM. Moreover, on RalA, the remaining activity at 1 µM amounted to 30% and the IC50 was found to be 0.66 ± 0.08 µM. In addition, at RalB, the remaining activity at 1 µM amounted to 43% and the IC50 worked out at 1.49 ± 0.22 µM. Further, the IC50 with Hep3B cells was found to be 8.3 ± 0.66 µM. Besides, the IC50 in the series on SMMC-7721 cells is > 10 µM.
As to `Cc1nn(-c2ccccc2)c2c1C(c1ccc(C(F)(F)F)cc1)C(C#N)=C(NS(=O)(=O)c1cccs1)O2` (centres unmarked) [4o, N-(5-cyano-3-methyl-1-phenyl-4-(4-(trifluoromethyl)phenyl)-1,4-dihydropyrano[2,3-c]-pyrazol-6-yl)thiophene-2-sulfonamide], the melting point was 55.9 to 56.7 °C. The IC50 with Huh-7 cells (setting [1]) was > 10 µM. In the series with Huh-7 cells (setting [2]), the IC50 was > 10 µM. The IC50 in the series with HepG2 cells (setting [3]) is 5.32 ± 0.61 µM. Also, the concentration for half-maximal inhibition (IC50) with HepG2 cells (setting [4]) was 5.32 ± 0.61 µM. Further, on RalA, the remaining activity at 1 µM was determined as 36% and the IC50 was 0.96 ± 0.12 µM. On RalB, the remaining activity at 1 µM worked out at 47% and the half-inhibitory concentration (IC50) turned out to be 1.93 ± 0.26 µM. Also, the half-inhibitory concentration (IC50) in the series on Hep3B cells is 7.69 ± 0.84 µM. In addition, in the series with SMMC-7721 cells, the IC50 was > 10 µM.
Take `Cc1ccc(S(=O)(=O)NC2=C(C#N)C(c3ccncc3)c3c(C)nn(-c4ccccc4)c3O2)cc1` (centres unmarked) [4l, N-(5-cyano-3-methyl-1-phenyl-4-(pyridin-4-yl)-1,4-dihydropyrano[2,3-c]-pyrazol-6-yl)-4-methylbenzenesulfonamide]: the melting point was in the range of 100.5 to 101.1 °C. For the same compound, the concentration for half-maximal inhibition (IC50) with Huh-7 cells (setting [1]) came to 9.15 ± 1.04 µM. For the same compound, the IC50 with Huh-7 cells (setting [2]) was determined as 9.15 ± 1.04 µM. In the series on HepG2 cells (setting [3]), the IC50 was 9.2 ± 0.89 µM. Further, the IC50 in the series with HepG2 cells (setting [4]) was 6.01 µM. In addition, on RalA, the remaining activity at 1 µM came to 40% and the IC50 came to 1.24 ± 0.15 µM. Also, at RalB, the remaining activity at 1 µM was 52% and the IC50 amounted to 2.64 ± 0.3 µM. The IC50 with Hep3B cells turned out to be 4.39 ± 0.57 µM. Also, in the series on SMMC-7721 cells, the half-inhibitory concentration (IC50) amounted to 5.94 ± 0.77 µM.
